# Where “and” joins values, the source holds several entries; their conditions need not be identical. Equal entries are not always repeated.
# What was measured:
# GRK5 = GRK5 (Homo sapiens, UniProt P34947); settings: 1 μM; Run 1, Run 2
# PKCb1 = PKCb1 (Homo sapiens, UniProt P05771); test: biochemical; settings: read-out: % enzyme activity, 1 μM; Run 1, Run 2
# FAK/PTK2 = FAK/PTK2 (Homo sapiens, UniProt Q05397); test: biochemical; settings: read-out: % enzyme activity, 1 μM; Run 1, Run 2
# RIPK5 = biological target: T1, RIPK5 (Homo sapiens, UniProt Q6XUX3); settings: 1 μM; Run 1, Run 2
# T1 sequence (Q6XUX3 1-929): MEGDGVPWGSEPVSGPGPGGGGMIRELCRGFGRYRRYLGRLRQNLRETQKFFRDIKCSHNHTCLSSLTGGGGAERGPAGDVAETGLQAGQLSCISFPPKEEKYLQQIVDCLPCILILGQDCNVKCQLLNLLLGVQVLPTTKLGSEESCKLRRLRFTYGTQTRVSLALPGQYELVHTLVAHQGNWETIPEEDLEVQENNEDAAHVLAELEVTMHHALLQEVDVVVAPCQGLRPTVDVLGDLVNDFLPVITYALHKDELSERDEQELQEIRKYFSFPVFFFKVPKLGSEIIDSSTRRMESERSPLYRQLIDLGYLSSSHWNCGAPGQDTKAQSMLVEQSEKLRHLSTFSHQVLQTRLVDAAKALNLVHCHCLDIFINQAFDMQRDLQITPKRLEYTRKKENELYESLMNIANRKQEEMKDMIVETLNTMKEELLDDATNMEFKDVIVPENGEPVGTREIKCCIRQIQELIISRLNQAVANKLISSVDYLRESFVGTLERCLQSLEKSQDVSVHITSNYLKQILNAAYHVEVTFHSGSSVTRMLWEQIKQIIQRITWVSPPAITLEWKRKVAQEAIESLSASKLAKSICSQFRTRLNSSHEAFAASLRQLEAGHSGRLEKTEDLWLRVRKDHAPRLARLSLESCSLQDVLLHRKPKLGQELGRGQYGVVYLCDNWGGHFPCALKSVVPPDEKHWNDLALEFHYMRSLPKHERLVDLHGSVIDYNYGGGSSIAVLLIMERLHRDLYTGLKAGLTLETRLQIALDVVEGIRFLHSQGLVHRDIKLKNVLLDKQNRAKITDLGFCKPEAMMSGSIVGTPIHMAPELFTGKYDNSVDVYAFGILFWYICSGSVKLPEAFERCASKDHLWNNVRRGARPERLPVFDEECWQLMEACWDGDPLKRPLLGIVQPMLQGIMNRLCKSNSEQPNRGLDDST
# MSSK1/STK23 = MSSK1/STK23 (Homo sapiens, UniProt Q9UPE1); settings: 1 μM; Run 1, Run 2
# MSSK1/STK23, sequence (Q9UPE1 whole entry): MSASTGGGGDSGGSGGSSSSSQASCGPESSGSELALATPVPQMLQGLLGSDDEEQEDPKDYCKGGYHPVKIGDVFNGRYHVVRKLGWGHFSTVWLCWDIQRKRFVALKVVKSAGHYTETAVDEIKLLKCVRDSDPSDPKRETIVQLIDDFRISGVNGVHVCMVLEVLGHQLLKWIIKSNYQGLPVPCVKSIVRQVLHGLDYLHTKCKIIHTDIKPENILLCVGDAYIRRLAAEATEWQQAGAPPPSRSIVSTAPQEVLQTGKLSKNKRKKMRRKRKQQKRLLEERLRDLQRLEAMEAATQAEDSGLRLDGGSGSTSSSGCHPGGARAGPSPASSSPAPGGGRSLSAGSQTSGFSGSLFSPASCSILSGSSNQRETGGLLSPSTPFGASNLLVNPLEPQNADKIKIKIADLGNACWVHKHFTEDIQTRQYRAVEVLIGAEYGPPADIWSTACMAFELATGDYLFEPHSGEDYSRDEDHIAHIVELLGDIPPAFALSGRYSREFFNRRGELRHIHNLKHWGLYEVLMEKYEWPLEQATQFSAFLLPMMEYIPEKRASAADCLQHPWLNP
# PEAK1 = PEAK1 (Homo sapiens, UniProt Q9H792); settings: 1 μM; Run 1, Run 2
# NEK1 = biological target: T2, NEK1 (Homo sapiens, UniProt Q96PY6); test: biochemical; settings: read-out: % enzyme activity, 1 μM; Run 1, Run 2
# T2 sequence (Q96PY6 1-1258): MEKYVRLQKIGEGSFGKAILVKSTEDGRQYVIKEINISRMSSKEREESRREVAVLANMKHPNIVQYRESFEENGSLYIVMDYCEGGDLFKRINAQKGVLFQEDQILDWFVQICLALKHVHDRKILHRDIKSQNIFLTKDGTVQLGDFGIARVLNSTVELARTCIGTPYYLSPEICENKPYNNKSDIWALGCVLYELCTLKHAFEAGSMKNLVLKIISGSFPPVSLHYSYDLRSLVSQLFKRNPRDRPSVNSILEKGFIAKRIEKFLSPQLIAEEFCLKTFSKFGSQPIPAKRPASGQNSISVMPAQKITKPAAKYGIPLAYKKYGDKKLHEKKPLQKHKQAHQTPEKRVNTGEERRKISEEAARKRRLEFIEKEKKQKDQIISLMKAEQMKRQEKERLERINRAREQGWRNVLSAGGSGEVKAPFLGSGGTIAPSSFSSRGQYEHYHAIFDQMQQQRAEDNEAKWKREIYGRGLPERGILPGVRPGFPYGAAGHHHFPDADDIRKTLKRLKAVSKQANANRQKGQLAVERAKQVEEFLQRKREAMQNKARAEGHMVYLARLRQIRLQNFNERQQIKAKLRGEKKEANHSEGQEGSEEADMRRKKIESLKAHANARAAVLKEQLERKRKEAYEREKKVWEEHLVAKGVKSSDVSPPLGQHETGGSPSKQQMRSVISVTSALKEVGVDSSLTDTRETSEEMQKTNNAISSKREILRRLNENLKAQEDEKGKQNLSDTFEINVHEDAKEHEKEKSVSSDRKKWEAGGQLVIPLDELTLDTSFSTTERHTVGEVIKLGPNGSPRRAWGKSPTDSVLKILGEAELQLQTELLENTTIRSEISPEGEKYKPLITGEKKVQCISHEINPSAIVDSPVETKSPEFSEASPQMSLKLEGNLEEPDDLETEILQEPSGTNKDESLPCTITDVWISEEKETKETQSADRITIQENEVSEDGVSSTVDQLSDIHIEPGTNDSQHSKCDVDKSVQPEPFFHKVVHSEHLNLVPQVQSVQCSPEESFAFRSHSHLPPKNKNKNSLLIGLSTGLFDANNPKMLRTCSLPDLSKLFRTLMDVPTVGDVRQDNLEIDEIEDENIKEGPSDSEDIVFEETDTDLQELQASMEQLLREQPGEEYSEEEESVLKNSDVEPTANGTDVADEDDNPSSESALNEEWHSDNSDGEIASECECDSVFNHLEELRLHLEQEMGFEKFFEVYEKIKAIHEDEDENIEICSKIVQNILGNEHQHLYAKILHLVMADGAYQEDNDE
# RIPK3 = RIPK3 (Homo sapiens, UniProt Q9Y572); settings: 1 μM; Run 1, Run 2
# RIPK3, sequence (Q9Y572 whole entry): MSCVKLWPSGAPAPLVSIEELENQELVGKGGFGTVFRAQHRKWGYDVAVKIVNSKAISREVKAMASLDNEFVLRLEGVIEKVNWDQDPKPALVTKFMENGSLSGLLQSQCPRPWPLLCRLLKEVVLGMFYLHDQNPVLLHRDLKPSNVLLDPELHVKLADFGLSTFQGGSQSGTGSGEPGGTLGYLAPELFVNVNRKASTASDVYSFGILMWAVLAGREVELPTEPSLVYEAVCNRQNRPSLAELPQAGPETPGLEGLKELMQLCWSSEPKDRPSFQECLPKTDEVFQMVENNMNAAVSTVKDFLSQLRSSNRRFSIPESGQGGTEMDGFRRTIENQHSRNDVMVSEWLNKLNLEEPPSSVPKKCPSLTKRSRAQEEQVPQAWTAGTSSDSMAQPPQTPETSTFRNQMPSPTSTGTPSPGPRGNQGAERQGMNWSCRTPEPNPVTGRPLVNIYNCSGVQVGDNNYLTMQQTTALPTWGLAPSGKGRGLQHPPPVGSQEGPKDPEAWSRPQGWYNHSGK
# PKCb1, sequence (P05771 whole entry): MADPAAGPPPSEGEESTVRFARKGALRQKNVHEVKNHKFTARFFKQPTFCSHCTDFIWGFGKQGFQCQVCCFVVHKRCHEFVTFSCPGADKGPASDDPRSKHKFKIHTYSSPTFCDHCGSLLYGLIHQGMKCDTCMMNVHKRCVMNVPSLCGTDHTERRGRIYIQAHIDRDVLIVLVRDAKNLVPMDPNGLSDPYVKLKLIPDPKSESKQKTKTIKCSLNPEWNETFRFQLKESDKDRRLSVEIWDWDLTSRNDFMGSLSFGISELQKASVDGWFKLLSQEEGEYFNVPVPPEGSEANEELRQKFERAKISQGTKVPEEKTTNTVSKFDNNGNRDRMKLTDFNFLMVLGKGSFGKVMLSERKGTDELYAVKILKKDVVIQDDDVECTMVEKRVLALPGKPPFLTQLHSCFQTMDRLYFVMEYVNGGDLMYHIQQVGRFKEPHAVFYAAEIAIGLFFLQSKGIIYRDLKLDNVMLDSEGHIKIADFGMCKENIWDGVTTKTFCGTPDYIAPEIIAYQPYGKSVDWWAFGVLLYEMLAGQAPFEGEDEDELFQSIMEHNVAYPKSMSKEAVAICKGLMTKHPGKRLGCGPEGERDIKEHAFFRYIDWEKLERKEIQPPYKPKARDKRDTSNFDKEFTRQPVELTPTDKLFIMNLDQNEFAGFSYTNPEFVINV
# FAK/PTK2, sequence (Q05397 whole entry): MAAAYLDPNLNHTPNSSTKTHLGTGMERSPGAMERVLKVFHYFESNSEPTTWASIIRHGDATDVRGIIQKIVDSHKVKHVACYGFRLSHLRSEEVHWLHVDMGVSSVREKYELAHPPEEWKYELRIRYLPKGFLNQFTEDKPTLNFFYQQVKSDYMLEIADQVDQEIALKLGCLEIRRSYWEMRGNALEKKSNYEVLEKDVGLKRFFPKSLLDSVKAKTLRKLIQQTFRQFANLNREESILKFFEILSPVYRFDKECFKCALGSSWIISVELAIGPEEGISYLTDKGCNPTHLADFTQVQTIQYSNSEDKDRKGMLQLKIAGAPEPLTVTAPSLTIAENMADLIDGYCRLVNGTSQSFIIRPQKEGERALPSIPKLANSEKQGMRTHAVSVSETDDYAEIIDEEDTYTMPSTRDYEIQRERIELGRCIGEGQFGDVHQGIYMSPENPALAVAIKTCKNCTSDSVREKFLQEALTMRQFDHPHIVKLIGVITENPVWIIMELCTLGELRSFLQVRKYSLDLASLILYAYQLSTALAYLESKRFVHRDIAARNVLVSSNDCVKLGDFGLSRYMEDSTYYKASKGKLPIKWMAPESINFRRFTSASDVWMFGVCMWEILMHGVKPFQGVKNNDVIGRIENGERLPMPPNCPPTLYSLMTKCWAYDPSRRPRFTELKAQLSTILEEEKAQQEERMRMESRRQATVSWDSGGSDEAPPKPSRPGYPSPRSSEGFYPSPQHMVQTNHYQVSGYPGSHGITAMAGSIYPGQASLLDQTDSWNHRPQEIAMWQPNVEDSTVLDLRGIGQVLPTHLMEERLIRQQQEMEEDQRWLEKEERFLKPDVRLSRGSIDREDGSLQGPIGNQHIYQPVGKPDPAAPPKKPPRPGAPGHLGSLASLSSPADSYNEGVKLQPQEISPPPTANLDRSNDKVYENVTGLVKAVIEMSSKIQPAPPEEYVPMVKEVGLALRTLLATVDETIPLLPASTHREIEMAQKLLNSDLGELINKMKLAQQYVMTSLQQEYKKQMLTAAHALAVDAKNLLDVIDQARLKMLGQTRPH
# GRK5, sequence (P34947 whole entry): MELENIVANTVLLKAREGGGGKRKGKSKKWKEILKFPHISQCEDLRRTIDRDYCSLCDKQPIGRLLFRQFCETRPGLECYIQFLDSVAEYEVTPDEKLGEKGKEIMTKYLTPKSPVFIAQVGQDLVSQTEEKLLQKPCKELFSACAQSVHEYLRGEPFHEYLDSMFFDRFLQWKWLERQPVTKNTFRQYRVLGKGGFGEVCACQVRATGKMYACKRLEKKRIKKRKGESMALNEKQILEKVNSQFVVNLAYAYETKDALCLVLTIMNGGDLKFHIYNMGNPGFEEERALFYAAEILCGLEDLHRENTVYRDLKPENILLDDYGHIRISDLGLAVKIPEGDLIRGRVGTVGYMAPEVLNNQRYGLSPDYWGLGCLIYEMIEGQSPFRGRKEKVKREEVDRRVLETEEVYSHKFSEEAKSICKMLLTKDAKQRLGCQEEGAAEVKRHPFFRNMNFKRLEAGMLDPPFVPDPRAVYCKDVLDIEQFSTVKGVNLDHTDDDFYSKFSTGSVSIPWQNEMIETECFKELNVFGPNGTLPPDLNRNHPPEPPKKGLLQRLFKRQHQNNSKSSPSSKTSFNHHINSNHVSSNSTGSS
SMILES,% enzyme activity (GRK5) [%],% enzyme activity at 1 μM (SIK2),remaining activity at 1 µM (PKCb1) [%],remaining activity at 1 µM (FAK/PTK2) [%],% enzyme activity (RIPK5) [%],% enzyme activity (MSSK1/STK23) [%],% enzyme activity (PEAK1) [%],remaining activity at 1 µM (NEK1) [%],% enzyme activity (RIPK3) [%]
"COc1cc(-c2cncc(-c3ccc(N4CCN(C)CC4)cc3)c2C)cc(F)c1C(N)=O [Compound 26a, 2-Fluoro-6-methoxy-4-(4-methyl-5-(4-(4-methylpiperazin-1-yl)phenyl)pyridin-3-yl)benzamide]",99.06,32% and 30.7%,85.5,94,82.21,98.71,97.59,87.6,101.40
"COc1cc(-c2cncc(-c3ccc(N4C[C@@H](C)N(C)[C@@H](C)C4)cc3)c2C)cc(F)c1C(N)=O [Compound 26c, 2-Fluoro-6-methoxy-4-(4-methyl-5-(4-((3R,5S)-3,4,5-trimethylpiperazin-1-yl)phenyl)pyridin-3-yl)benzamide]",91.62,43.9% and 43.5%,85.3,95.4,86.47,99.23,95.56,88.1,102.83

# From article PMC8213057, “Targeting ALK2: An Open Science Approach to Developing Therapeutics for the Treatment of Diffuse Intrinsic Pontine Glioma” (Journal of Medicinal Chemistry, 2020)
